Measurements from patent US12043599B2, “Herbicidal compounds” (SYNGENTA PARTICIPATIONS AG, priority 2018, dated 2024).

Experiments:
Assay type in all cases: in vivo
[1] = system: Setaria faberi (SETFA); test: Post-emergence herbicidal glasshouse test, percentage damage; conditions: for SETFA POST percentage damage (five point scale): 250 g/h, evaluated after 13 days
Outline: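 Percentage damage was scored 13 days after treatment on a five-point scale (1=0-19% to 5=80-100%). Treatments were post-emergence sprays on 8-day-old wheat, barley and SETFA plants in a glasshouse (24/16 °C day/night, 14 h light, 65% humidity), using acetone/water 50:50 with 0.5% Tween 20 at the stated rates. Wheat additionally received cloquintocet-mexyl safener at 50 g/ha.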

[2] = system: wheat; test: Post-emergence crop safety test on wheat crop plants
Experimental: (§1) Seeds of a variety of test species are sown in standard soil in pots (Lolium perenne (LOLPE), Setaria faberi (SETFA), Alopecurus myosuroides (ALOMY), Echinochloa crus-galli (ECHCG), Avena fatua (AVEFA)). After cultivation for one day (pre-emergence) or after 8 days cultivation (post-emergence) under controlled conditions in a glasshouse (at 24/16° C., day/night; 14 hours light; 65% humidity), the plants are sprayed with an aqueous spray solution derived from the formulation of the technical active ingredient in acetone/water (50:50) solution containing 0.5% Tween 20 (polyoxyethelyene sorbitan monolaurate, CAS RN 9005-64-5). Compounds are applied at […]. The test plants are then grown in a glasshouse under controlled conditions in a glasshouse (at 24/16° C., day/night; 14 hours light; 65% humidity) and watered twice daily. After 13 days for pre and post-emergence, the test is evaluated for the percentage damage caused to the plant. The biological activities are shown in the following table on a five point scale (5=80-100%; 4=60-79%; 3=40-59%; 2=20-39%; 1=0-19%).
Using procedures outlines above, wheat and barley crop plants and a weed species (SETFA) are treated post-emergence with compound A11 of the present invention or comparator compound C1 (Compound A-38 from WO2014/096289) at the application rates indicated. The compounds were also applied to wheat in conjunction with the safener compound cloquintocet-mexyl (CQC) at 50 g/ha.

[3] = system: barley; test: Post-emergence crop safety test on barley crop plants
Experimental: as §1
Using procedures outlines above, wheat and barley crop plants and a weed species (SETFA) are treated post-emergence with compound A11 of the present invention or comparator compound C1 (Compound A-38 from WO2014/096289) at the application rates indicated. […]

[4] = system: Alopecurus myosuroides (ALOMY); test: Pre-emergence herbicidal glasshouse test, percentage damage; conditions: 250 g/h, evaluated after 13 days
Outline: (§2)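 Spray: 250 g/h, aqueous acetone/water 50:50 + 0.5% Tween 20; pre-em 1 d after sowing, post-em at 8 d. Glasshouse 24/16 °C, 14 h light, 65% RH, watered twice daily. Read % damage at 13 d, scored 1–5 (5=80-100%).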

[5] = system: Avena fatua (AVEFA); test: as above; conditions: 250 g/h, evaluated after 13 days
Outline: as §2

[6] = system: Echinochloa crus-galli (ECHCG); test: as above; conditions: 250 g/h, evaluated after 13 days
Outline: as §2

[7] = system: Lolium perenne (LOLPE); test: as above; conditions: 250 g/h, evaluated after 13 days
Outline: as §2

[8] = system: Setaria faberi (SETFA); test: as above; conditions: 250 g/h, evaluated after 13 days
Outline: as §2

[9] = system: Alopecurus myosuroides (ALOMY); test: Post-emergence herbicidal glasshouse test, percentage damage; conditions: 250 g/h, evaluated after 13 days
Outline: as §2

[10] = system: Avena fatua (AVEFA); test: as above; conditions: 250 g/h, evaluated after 13 days
Outline: as §2

[11] = system: Echinochloa crus-galli (ECHCG); test: as above; conditions: 250 g/h, evaluated after 13 days
Outline: as §2

[12] = system: Lolium perenne (LOLPE); test: as above; conditions: 250 g/h, evaluated after 13 days
Outline: as §2

Compound | overall weed control [1] | SETFA, percentage damage ([1]; rate 30) [%] | SETFA, percentage damage ([1]; rate 60) [%] | Wheat, percentage damage ([2]; rate 30) [%] | Wheat, percentage damage ([2]; rate 60) [%] | Wheat, percentage damage ([2]; rate 60 + CQC (safener cloquintocet-mexyl at 50 g/ha)) [%] | crop safety vis-à-vis prior art compound C1 ([2]; wheat and barley) | Barley, percentage damage ([3]; rate 30) [%] | Barley, percentage damage ([3]; rate 60) [%] | ALOMY PRE percentage damage (five point scale) [4] | AVEFA PRE percentage damage (five point scale) [5] | ECHCG PRE percentage damage (five point scale) [6] | LOLPE PRE percentage damage (five point scale) [7] | SETFA PRE percentage damage (five point scale) [8] | SETFA POST percentage damage (five point scale) [1] | ALOMY POST percentage damage (five point scale) [9] | AVEFA POST percentage damage (five point scale) [10] | ECHCG POST percentage damage (five point scale) [11] | LOLPE POST percentage damage (five point scale) [12]
CC#Cc1cc(C)c(C2C(=O)CC3(CCN(C(=O)OC)CC3)CC2=O)c(C)c1 [Compound A11] | good overall weed control | 100 | 100 | 10 | 30 | 0 | significantly improved crop safety | 10 | 40 | – | – | – | – | – | – | – | – | – | –
CC#Cc1cc(C)c(C2=C(OC(C)=O)CC3(CCN(C(=O)C4CC4)CC3)CC2=O)c(C)c1 [Compound P29] | – | – | – | – | – | – | – | – | – | 5 (5=80-100%) | 5 (5=80-100%) | 5 (5=80-100%) | 5 (5=80-100%) | 5 (5=80-100%) | 5 (5=80-100%) | 5 (5=80-100%) | 5 (5=80-100%) | 5 (5=80-100%) | 5 (5=80-100%)
CC#Cc1cc(C)c(C2=C(OC(=O)OC)CC3(CCN(C(=O)c4cccnn4)CC3)CC2=O)c(C)c1 [Compound P30] | – | – | – | – | – | – | – | – | – | 5 (5=80-100%) | 5 (5=80-100%) | 5 (5=80-100%) | 5 (5=80-100%) | 5 (5=80-100%) | 5 (5=80-100%) | 5 (5=80-100%) | 5 (5=80-100%) | 5 (5=80-100%) | 5 (5=80-100%)
CC#Cc1cc(C)c(C2=C(OC(=O)OC)CC3(CCN(C(=O)COCCOC)CC3)CC2=O)c(C)c1 [Compound P50] | – | – | – | – | – | – | – | – | – | 3 (3=40-59%) | 2 (2=20-39%) | 5 (5=80-100%) | 4 (4=60-79%) | 5 (5=80-100%) | 5 (5=80-100%) | 4 (4=60-79%) | 5 (5=80-100%) | 5 (5=80-100%) | 5 (5=80-100%)
CC#Cc1cc(C)c(C2=C(OC(=O)OC)CC3(CCN(C(=O)COCC)CC3)CC2=O)c(C)c1 [Compound P51] | – | – | – | – | – | – | – | – | – | 5 (5=80-100%) | 5 (5=80-100%) | 5 (5=80-100%) | 5 (5=80-100%) | 5 (5=80-100%) | 5 (5=80-100%) | 5 (5=80-100%) | 5 (5=80-100%) | 5 (5=80-100%) | 5 (5=80-100%)
CC#Cc1cc(C)c(C2=C(OC(=O)OCCOC)CC3(CCN(C(=O)OCCOC)CC3)CC2=O)c(C)c1 [Compound P52] | – | – | – | – | – | – | – | – | – | 5 (5=80-100%) | 5 (5=80-100%) | 5 (5=80-100%) | 5 (5=80-100%) | 5 (5=80-100%) | 5 (5=80-100%) | 5 (5=80-100%) | 5 (5=80-100%) | 5 (5=80-100%) | 5 (5=80-100%)
CC#Cc1cc(C)c(C2=C(OC(=O)OC)CC3(CCN(C(=O)NC(C)=O)CC3)CC2=O)c(C)c1 [Compound P53] | – | – | – | – | – | – | – | – | – | 4 (4=60-79%) | 5 (5=80-100%) | 5 (5=80-100%) | 4 (4=60-79%) | 5 (5=80-100%) | 5 (5=80-100%) | 5 (5=80-100%) | 5 (5=80-100%) | 5 (5=80-100%) | 5 (5=80-100%)
CC#Cc1cc(C)c(C2=C(OC(=O)C(C)(C)C)CC3(CCN(C(=O)N(C)C(=O)C(C)(C)C)CC3)CC2=O)c(C)c1 [Compound P54] | – | – | – | – | – | – | – | – | – | 4 (4=60-79%) | 4 (4=60-79%) | 5 (5=80-100%) | 5 (5=80-100%) | 5 (5=80-100%) | 5 (5=80-100%) | 5 (5=80-100%) | 4 (4=60-79%) | 5 (5=80-100%) | 5 (5=80-100%)
